Activity calls are given as the source filed them. The rule behind the calls is not given here.
Assays:
[1] = molecular target: 5-hydroxytryptamine receptor 2C (Homo sapiens, UniProt P28335); assay: GPCRScan assay: inhibition of 5-HT2C; set-up: radioligand conc. used [nm] 1.0 – 2.5, parental cells HEK T
[2] = molecular target: Alpha-2B adrenergic receptor (Homo sapiens, UniProt P18089); assay: GPCRScan assay: inhibition of Alpha2B; set-up: radioligand conc. used [nm] 1.5 – 2.0, parental cells HEKT
[3] = molecular target: 5-hydroxytryptamine receptor 1D (Homo sapiens) (UniProt P28221); conditions: Compound concentration 10.0 uM
[4] = molecular target: GABA-A receptor; anion channel; assay: GPCRScan assay: inhibition of GABAA/BZP; type: protein-complex assay, Rattus norvegicus; set-up: radioligand conc. used [nm] 0.6 – 4.0, parental cells brain tissue
[5] = molecular target: GABA-A receptor; anion channel (Rattus norvegicus) (UniProt O09028+P15431+P18506+P18508+P19969+P20236+P23574+P23576+P28471+P28473+P30191+P62813+P63079+P63138+Q91ZM7+Q9ES14); conditions: Compound concentration 10.0 uM
[6] = molecular target: Alpha-2C adrenergic receptor (Homo sapiens, UniProt P18825); assay: GPCRScan assay: inhibition of Alpha2C; set-up: radioligand conc. used [nm] 0.5 – 1.0, parental cells stable MDCK
[7] = molecular target: Beta-3 adrenergic receptor (Homo sapiens, UniProt P13945); assay: GPCRScan assay: inhibition of Beta3; set-up: radioligand conc. used [nm] 0.2 – 0.5, parental cells HEK Flp-In
[8] = molecular target: Receptor-interacting serine/threonine-protein kinase 2 (Homo sapiens) (UniProt O43353); conditions: Compound concentration 1000.0 nM
[9] = molecular target: Death-associated protein kinase 1 (Homo sapiens) (UniProt P53355); conditions: Compound concentration 1000.0 nM
[10] = molecular target: Protein kinase C theta type (Homo sapiens) (UniProt Q04759); conditions: Compound concentration 1000.0 nM
[11] = molecular target: Sodium-dependent dopamine transporter (Homo sapiens, UniProt Q01959); assay: GPCRScan assay: inhibition of DAT; set-up: radioligand conc. used [nm] 3.6 – 16.0, parental cells stable HEK
[12] = molecular target: Interleukin-1 receptor-associated kinase 1 (Homo sapiens) (UniProt P51617); conditions: Compound concentration 1000.0 nM
Cannabinoid receptor 1 [13] = molecular target: T1, Cannabinoid receptor 1 (Homo sapiens, UniProt P21554); assay: Radioligand Binding Assay (CNR1)
[14] = system: Mast/stem cell growth factor receptor Kit (Homo sapiens), P10721 [D816V]; conditions: Compound concentration 1000.0 nM
[15] = molecular target: NUAK family SNF1-like kinase 2 (Homo sapiens) (UniProt Q9H093); conditions: Compound concentration 1000.0 nM
[16] = molecular target: Serine/threonine-protein kinase DCLK2 (Homo sapiens) (UniProt Q8N568); conditions: Compound concentration 1000.0 nM
[17] = molecular target: 5-hydroxytryptamine receptor 1A (Homo sapiens) (UniProt P08908); conditions: Compound concentration 10.0 uM
[18] = molecular target: 5-hydroxytryptamine receptor 1E (Homo sapiens) (UniProt P28566); conditions: Compound concentration 10.0 uM
[19] = molecular target: Beta-1 adrenergic receptor (Homo sapiens) (UniProt P08588); conditions: Compound concentration 10.0 uM
[20] = molecular target: Serine/threonine-protein kinase DCLK3 (Homo sapiens) (UniProt Q9C098); conditions: Compound concentration 1000.0 nM
[21] = molecular target: Phosphatidylinositol 4-phosphate 3-kinase C2 domain-containing subunit beta (Homo sapiens) (UniProt O00750); conditions: Compound concentration 1000.0 nM
[22] = molecular target: Serine/threonine-protein kinase TAO2 (Homo sapiens) (UniProt Q9UL54); conditions: Compound concentration 1000.0 nM
[23] = molecular target: Delta-type opioid receptor (Homo sapiens, UniProt P41143); assay: GPCRScan assay: inhibition of DOR; set-up: radioligand conc. used [nm] 1.0 – 2.0, parental cells stable HEK
[24] = molecular target: Serine/threonine-protein kinase pim-2 (Homo sapiens) (UniProt Q9P1W9); conditions: Compound concentration 1000.0 nM
[25] = molecular target: 5-hydroxytryptamine receptor 2A (Homo sapiens, UniProt P28223); assay: GPCRScan assay: inhibition of 5-HT2A; set-up: radioligand conc. used [nm] 1.2 – 2.4, parental cells HEKT
[26] = molecular target: 5-hydroxytryptamine receptor 7 (Homo sapiens) (UniProt P34969); conditions: Compound concentration 10.0 uM
[27] = molecular target: 5-hydroxytryptamine receptor 6 (Homo sapiens) (UniProt P50406); conditions: Compound concentration 10.0 uM
[28] = molecular target: Sigma non-opioid intracellular receptor 1 (Homo sapiens, UniProt Q99720); assay: GPCRScan assay: inhibition of Sigma 1; set-up: radioligand conc. used [nm] 4.0 – 5.0, parental cells HEKT
[29] = molecular target: Histamine H4 receptor (Homo sapiens) (UniProt Q9H3N8); conditions: Compound concentration 10.0 uM
[30] = molecular target: Sigma intracellular receptor 2 (Homo sapiens, UniProt Q5BJF2); assay: GPCRScan assay: inhibition of Sigma 2; set-up: radioligand conc. used [nm] 5.0, parental cells HEKT
[31] = molecular target: Sodium-dependent serotonin transporter (Homo sapiens) (UniProt P31645); conditions: Compound concentration 10.0 uM
Cannabinoid receptor 1 [32] = molecular target: T1, Cannabinoid receptor 1; assay: Functional activation assay
[33] = GPCRScan assay: inhibition of GABA/PBR; set-up: species or system Rattus norvegicus; radioligand conc. used [nm] 0.3 – 2.0, parental cells brain tissue

Chain of Serine/threonine-protein kinase DCLK2 (Homo sapiens) (Q8N568 whole entry): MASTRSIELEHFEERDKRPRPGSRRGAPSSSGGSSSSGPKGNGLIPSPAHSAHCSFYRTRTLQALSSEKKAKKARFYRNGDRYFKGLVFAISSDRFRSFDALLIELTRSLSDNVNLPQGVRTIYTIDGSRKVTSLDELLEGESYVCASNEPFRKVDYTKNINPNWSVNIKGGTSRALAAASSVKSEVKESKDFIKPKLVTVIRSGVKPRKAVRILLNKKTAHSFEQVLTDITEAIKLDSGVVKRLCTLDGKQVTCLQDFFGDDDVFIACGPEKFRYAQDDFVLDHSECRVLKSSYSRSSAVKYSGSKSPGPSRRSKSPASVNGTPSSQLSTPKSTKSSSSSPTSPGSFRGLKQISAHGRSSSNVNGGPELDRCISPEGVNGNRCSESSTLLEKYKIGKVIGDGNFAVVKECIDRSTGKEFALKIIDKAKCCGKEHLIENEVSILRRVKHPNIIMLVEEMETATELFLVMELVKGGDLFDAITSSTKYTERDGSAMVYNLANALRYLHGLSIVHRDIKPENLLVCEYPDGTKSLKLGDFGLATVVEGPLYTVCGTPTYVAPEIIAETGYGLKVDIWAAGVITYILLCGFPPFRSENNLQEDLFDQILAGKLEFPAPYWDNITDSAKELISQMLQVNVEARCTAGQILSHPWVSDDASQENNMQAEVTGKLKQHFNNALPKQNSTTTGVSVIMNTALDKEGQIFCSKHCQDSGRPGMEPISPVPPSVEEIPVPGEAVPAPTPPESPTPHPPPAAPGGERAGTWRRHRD
Chain of 5-hydroxytryptamine receptor 1D (Homo sapiens) (P28221 whole entry): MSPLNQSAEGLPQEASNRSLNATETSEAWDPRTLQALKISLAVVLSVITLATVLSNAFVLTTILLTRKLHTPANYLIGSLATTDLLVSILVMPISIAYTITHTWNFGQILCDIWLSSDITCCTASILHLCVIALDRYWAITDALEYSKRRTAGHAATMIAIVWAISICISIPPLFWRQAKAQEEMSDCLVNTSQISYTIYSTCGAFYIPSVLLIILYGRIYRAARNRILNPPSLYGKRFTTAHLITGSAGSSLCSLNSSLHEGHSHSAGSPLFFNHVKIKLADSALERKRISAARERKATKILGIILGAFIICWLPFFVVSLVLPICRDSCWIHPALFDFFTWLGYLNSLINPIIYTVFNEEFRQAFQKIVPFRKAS
T1 sequence (P21554 whole entry): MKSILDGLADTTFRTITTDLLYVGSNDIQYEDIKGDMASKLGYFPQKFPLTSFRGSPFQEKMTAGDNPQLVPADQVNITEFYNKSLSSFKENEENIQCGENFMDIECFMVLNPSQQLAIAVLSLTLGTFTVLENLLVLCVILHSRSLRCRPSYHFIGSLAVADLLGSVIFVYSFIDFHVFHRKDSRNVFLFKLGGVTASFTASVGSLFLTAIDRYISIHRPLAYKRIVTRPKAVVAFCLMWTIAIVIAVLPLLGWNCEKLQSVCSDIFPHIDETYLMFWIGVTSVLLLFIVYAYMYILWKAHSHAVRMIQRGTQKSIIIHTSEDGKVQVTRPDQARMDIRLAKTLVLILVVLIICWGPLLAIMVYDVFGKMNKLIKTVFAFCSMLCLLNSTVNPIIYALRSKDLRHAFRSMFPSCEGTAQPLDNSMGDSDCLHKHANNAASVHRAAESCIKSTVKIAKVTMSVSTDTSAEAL
Chain of Sodium-dependent dopamine transporter (Q01959 whole entry): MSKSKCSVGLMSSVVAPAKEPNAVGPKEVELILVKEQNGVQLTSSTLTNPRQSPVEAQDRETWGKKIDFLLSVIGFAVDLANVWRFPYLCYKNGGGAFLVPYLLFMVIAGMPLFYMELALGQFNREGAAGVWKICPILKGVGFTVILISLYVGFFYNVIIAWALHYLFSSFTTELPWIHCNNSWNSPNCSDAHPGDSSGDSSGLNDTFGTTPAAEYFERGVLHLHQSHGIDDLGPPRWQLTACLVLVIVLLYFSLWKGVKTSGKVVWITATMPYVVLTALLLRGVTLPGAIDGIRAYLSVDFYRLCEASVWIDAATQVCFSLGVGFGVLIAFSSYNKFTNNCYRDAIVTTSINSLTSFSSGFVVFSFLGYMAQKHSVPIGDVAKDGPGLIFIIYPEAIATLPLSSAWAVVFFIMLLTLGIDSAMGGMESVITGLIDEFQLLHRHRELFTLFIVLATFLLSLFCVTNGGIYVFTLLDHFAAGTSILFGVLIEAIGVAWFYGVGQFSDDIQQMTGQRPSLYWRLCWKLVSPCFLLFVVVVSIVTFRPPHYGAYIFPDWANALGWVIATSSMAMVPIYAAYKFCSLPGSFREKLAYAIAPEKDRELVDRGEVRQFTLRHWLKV
Chain of Mast/stem cell growth factor receptor Kit (Homo sapiens), P10721 [D816V] (P10721 whole entry D816V): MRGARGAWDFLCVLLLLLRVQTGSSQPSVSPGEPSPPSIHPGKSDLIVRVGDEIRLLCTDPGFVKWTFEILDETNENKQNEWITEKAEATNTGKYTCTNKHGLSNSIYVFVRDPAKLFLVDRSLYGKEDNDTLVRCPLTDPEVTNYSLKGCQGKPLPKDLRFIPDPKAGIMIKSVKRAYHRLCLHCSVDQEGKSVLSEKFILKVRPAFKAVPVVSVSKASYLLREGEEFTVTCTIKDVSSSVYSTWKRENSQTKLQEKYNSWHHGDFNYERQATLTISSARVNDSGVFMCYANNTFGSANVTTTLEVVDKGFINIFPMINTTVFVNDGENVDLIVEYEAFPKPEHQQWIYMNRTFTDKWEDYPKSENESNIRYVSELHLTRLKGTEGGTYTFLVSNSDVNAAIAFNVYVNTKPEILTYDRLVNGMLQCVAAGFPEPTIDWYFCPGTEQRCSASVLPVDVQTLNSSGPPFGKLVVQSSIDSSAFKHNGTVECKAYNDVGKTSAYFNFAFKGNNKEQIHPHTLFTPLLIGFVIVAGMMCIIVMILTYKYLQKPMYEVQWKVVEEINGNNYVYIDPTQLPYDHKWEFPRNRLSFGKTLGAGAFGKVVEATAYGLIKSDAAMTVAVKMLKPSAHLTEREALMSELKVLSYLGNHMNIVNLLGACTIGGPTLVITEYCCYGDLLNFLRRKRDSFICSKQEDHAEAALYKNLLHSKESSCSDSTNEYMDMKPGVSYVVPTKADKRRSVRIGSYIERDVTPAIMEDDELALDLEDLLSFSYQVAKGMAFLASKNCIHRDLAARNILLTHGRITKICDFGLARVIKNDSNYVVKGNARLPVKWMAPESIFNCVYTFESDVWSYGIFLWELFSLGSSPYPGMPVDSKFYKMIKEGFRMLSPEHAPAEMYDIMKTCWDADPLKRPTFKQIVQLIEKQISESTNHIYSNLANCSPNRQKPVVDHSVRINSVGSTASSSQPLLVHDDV
Chain of Death-associated protein kinase 1 (Homo sapiens) (P53355 whole entry, looked up): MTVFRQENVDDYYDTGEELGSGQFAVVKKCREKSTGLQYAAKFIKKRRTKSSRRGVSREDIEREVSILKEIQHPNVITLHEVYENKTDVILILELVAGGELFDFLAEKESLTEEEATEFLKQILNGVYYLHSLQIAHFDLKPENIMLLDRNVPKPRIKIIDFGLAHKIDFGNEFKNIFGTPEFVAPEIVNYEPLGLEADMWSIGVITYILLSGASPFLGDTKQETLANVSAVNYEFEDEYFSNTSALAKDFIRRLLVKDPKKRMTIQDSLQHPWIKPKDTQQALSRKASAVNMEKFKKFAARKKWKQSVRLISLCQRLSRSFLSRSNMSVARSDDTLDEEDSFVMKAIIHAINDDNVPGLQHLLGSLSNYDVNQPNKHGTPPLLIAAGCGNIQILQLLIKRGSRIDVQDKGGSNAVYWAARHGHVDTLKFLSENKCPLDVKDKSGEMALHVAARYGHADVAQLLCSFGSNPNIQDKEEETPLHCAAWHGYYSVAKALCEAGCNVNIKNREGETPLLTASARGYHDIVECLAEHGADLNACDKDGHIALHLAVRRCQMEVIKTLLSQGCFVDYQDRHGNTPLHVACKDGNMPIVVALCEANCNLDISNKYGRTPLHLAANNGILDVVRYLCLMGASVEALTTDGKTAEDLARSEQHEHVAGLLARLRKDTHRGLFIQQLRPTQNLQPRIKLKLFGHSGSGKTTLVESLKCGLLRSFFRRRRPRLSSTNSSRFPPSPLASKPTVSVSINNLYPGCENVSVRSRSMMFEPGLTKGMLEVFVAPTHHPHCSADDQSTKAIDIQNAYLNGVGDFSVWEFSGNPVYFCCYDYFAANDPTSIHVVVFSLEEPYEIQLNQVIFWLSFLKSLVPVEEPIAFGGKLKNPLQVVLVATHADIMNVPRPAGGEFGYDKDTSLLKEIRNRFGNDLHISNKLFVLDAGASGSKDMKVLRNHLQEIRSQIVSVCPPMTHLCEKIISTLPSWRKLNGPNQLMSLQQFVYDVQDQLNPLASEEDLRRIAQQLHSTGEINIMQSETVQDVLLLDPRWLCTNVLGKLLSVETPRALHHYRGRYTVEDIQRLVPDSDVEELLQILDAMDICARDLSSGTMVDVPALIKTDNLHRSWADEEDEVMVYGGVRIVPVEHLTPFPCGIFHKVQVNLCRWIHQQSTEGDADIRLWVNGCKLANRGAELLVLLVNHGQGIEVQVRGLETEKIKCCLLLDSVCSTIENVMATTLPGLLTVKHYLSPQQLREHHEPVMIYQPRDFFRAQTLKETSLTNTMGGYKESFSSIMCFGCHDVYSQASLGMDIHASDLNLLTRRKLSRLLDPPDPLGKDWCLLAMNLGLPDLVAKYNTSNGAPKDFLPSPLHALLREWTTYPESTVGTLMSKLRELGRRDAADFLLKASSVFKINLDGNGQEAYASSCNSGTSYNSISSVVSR
Chain of Serine/threonine-protein kinase pim-2 (Homo sapiens) (Q9P1W9 whole entry, looked up): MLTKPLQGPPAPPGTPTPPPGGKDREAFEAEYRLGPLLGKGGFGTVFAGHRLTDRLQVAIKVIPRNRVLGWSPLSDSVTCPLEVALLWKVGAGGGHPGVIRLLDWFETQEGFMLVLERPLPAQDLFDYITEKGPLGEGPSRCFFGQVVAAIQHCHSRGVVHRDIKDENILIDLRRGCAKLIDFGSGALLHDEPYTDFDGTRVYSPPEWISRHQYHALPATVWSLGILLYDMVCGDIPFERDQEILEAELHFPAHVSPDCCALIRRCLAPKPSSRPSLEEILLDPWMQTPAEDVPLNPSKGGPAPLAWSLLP

SMILES | inhibition [3] [%] | residual activity [8] [%] | residual activity [9] [%] | residual activity [10] [%] | residual activity [12] [%] | residual activity [14] [%] | residual activity [15] [%] | residual activity [16] [%] | residual activity [20] [%] | residual activity [21] [%] | residual activity [22] [%] | residual activity [24] [%] | further results
CC(=O)c1c(NS(C)(=O)=O)c2cc(-c3ccc(Cl)cc3)c(-c3ccc(Cl)cc3Cl)nc2n(C)c1=O [MRL-CB1-NC] | 68.5 | 96 | 80 | 100 | 92 | 100 | 89 | 96 | 100 | 100 | 97 | 100 | Ki [1]: 0.022 µM; Ki [2]: 1.69 µM; Ki [4]: 1.66 µM; inhibition [5]: 0.954%; Ki [6]: 10 µM; Ki [7]: 1.13 µM; Ki ([11]; read-out: Ki): 0.766 µM; Ki ([11]; read-out: pKi (converted)): 0.794 µM; Inverse agonism (Cannabinoid receptor 1 [13]): 32.5%; inhibition [17]: 28.7%; inhibition [18]: 29.2%; inhibition [19]: 25.6%; Ki [23]: 1.41 µM; Ki [25]: 1.81 µM
CC(=O)Nc1c(C(C)=O)c(=O)n(C)c2nc(-c3ccc(Cl)cc3Cl)c(-c3ccc(Cl)cc3)cc12 [NAPHTHYRIDINONE] | 32.9 | 100 | 100 | 100 | 97 | 100 | 100 | 100 | 100 | 48 | 88 | 100 | inhibition [26]: 0.657%; inhibition [27]: -3.97%; Ki [28]: 1.16 µM; inhibition [29]: 13.9%; Ki [30]: 0.605 µM; inhibition [31]: -9.53%; EC50 (Cannabinoid receptor 1 [32]): 0.0049 µM (active); Ki [33]: 0.082 µM; pKi [33]: 7.09

From ChEMBL document CHEMBL4507287, “Data for DCP probe MRL-650” (2021)
